The text below walks through data of patent publication US12162888B2, “Carboxamides as ubiquitin-specific protease inhibitors” (Valo Early Discovery, Inc., priority 2018, dated 2024).

Where two headings read alike, the source gives them in different places.

The assay deals with T1, USP28 (His-tagged USP28-FL-mammalian) (Homo sapiens, UniProt Q96RU2).
T1 construct: Expression of USP28 (1-1077)-TEV-6*His (pTT5 vector) was carried out in Expi293f cells; made in house; host or cells: Expi293F cells (pTT5 vector)
T1 sequence (Q96RU2 1-1077): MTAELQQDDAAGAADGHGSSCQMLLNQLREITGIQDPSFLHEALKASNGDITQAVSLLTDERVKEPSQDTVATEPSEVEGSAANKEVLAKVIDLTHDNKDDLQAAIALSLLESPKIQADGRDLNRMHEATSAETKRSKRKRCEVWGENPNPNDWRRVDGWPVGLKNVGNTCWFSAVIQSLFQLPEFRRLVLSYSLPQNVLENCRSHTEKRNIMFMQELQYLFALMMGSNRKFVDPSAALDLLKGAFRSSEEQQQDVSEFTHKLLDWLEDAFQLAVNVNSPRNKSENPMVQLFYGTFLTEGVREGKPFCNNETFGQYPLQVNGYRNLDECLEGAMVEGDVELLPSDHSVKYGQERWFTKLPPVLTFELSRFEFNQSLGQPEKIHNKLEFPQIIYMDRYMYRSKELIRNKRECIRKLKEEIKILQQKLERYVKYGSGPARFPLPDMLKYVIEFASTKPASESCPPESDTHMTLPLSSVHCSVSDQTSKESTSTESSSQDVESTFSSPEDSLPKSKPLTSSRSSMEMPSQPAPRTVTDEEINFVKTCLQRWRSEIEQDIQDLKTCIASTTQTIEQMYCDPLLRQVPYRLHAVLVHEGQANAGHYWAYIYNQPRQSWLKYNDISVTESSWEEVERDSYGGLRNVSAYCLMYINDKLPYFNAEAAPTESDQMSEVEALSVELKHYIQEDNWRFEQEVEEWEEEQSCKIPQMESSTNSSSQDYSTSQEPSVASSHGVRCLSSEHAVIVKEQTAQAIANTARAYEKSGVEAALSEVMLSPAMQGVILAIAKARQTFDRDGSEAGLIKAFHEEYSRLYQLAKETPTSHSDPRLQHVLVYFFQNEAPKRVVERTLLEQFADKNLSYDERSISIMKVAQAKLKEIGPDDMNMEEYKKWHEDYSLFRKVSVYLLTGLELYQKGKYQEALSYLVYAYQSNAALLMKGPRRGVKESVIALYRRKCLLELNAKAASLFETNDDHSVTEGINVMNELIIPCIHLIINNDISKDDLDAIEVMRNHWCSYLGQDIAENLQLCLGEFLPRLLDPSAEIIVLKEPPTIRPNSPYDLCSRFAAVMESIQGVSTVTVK
The assay can be described thus: Ubiquitin-Rhodamine 110 Assay for USP28 Activity, Example A-1(a). The format is biochemical. Particulars: Ubiquitin-Rhodamine 110 assay. The procedure, abridged: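 IC50s were fitted with a 4-parameter logistic to percent inhibition relative to no-enzyme and DMSO controls, using Rhodamine 110 fluorescence (485/535 nm) released from 25 nM Ub-Rh110. The enzyme was Expi293F-expressed USP28-FL-His at […], preincubated 30 min with compound (10-point, 25 μM top) in Tris pH 8.0 buffer containing BGG and Triton X-100. Substrate turnover ran 45 min at room temperature and was stopped with 10 mM citric acid.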

[1] abbreviates: read-out: USP28 A-1(a) IC50 range.
The mark [2] stands for this setting: biochemical IC50 range, read-out: USP28 A-1(a).

With `CN[C@@H]1CN(c2ccc3c(n2)CC[C@H](NC(=O)c2sc4nc(C)ccc4c2N)C3)C[C@@H]1CF` [Example 442, 3-amino-N-[(6S)-2-[(3S,4S)-3-(fluoromethyl)-4-(methylamino)pyrrolidin-1-yl]-5,6,7,8-tetrahydroquinolin-6-yl]-6-methylthieno[2,3-b]pyridine-2-carboxamide], the IC50 under setting [1] was 50 to 200 nM.
The same measure, in the same setting: next, `CCn1ccc2cc(C(=O)N[C@H]3CCc4nc(N5C[C@@H](COC)[C@@H](N)C5)ccc4C3)cnc21` (single isomer, unassigned) [Example 400]: 200 to 2000 nM.
For the compound `Cc1ccc2c(N)c(C(=O)N[C@H]3COc4cc(N5C[C@H](N)[C@@]6(CCOC6)C5)ccc4C3)sc2n1` (single isomer, unassigned) [Example 439], the IC50 under setting [1] lay in the range of 1 to 50 nM.
`Cc1ccc2c(N)c(C(=O)N[C@@H]3CCc4c(C#N)c(N5CC6CNCC(C5)O6)cc(F)c4C3)sc2n1` (single isomer, unassigned) [Example 14-16]: under setting [1], the IC50 is 50 to 200 nM.
With `Cc1nc2sc(C(=O)N[C@@H]3CCc4c(C#N)c(N5CCNCC5)cc(F)c4C3)c(N)c2s1` (single isomer, unassigned) [Example 14-13], the IC50 under setting [1] was in the range of 200 to 2000 nM.
Take `O=C(N[C@H]1COc2cc(N3CCNCC3)ccc2C1)c1ccc(NCc2cccc(Cl)c2Cl)nc1` [Example 699, 6-{[(2,3-dichlorophenyl)methyl]amino}-N-[(3R)-7-(piperazin-1-yl)-3,4-dihydro-2H-1-benzopyran-3-yl]pyridine-3-carboxamide]: under setting [2], the IC50 was in the range of 1 to 50 nM.
Turning to `Cc1cnc2c(N)c(C(=O)N[C@@H]3CCc4cc(N5CCNCC5)ccc4C3)sc2n1` (single isomer, unassigned) [Example 11-20], the IC50 under setting [1] was 200 to 2000 nM.
Turning to `Cc1ccc2c(N)c(C(=O)N[C@H]3COc4cc(N5CCNCC5)ccc4[C@@H]3C)sc2n1` (single isomer, unassigned) [Example 11-17], the IC50 under setting [1] was > 2000 nM.
Still for that read-out and setting: the result for `Cc1cnc2c(N)c(C(=O)N[C@H]3CCc4cc(N5CCNCC5)c(F)cc4C3)sc2n1` (single isomer, unassigned) [Example 21-12] reads 1 to 50 nM; that for `Cc1cnc2c(N)c(C(=O)N[C@@H]3CCc4c(C#N)c(N5CCNCC5)cc(F)c4C3)sc2n1` (single isomer, unassigned) [Example 14-11], 1 to 50 nM.
With `COC1CN(c2ccc3c(c2)CC[C@H](NC(=O)c2sc4nc(C)cnc4c2N)C3)CC1N` (stereo in doubt) [Example 130, 7-amino-N-[(2S)-6-[(3S,4S)-3-amino-4-methoxypyrrolidin-1-yl]-1,2,3,4-tetrahydronaphthalen-2-yl]-3-methylthieno[2,3-b]pyrazine-6-carboxamide], the IC50 under setting [2] fell in the range of 50 to 200 nM.
Regarding `Cc1ccc2c(N)c(C(=O)N[C@@H]3CCc4c(C#N)c(N5CCNCC5)cc(F)c4C3)sc2n1` (single isomer, unassigned) [Example 14-9], the IC50 under setting [1] was 200 to 2000 nM.
The same measure, in the same setting: the result for `Cc1nc2sc(C(=O)N[C@@H]3CCc4cc(N5CCNCC5)ccc4C3)c(N)c2s1` (single isomer, unassigned) [Example 11-34] reads 50 to 200 nM; that for `Cc1nc2sc(C(=O)N[C@H]3CCc4cc(N5CCNCC5)ccc4C3)c(N)c2s1` (single isomer, unassigned) [Example 11-33], 200 to 2000 nM; that for `Cc1ccc2c(N)c(C(=O)N[C@H]3CCc4c(C#N)c(N5CCNCC5)cc(F)c4C3)sc2n1` (single isomer, unassigned) [Example 14-10], 1 to 50 nM.
Regarding `CO[C@H]1CN(c2ccc3c(c2)OC[C@H](NC(=O)c2sc4nc(C)sc4c2N)C3)CC1N` (stereo partly drawn) [Example 118, 6-amino-N-[(3R)-7-[(3,4S)-3-amino-4-methoxypyrrolidin-1-yl]-3,4-dihydro-2H-1-benzopyran-3-yl]-2-methylthieno[2,3-d][1,3]thiazole-5-carboxamide], the IC50 under setting [1] was in the range of 50 to 200 nM.
On the same count and under the same terms, the result for `Cc1ccc2c(N)c(C(=O)N[C@H]3CCc4c(C#N)c(N5CC6CCC(C5)N6)cc(F)c4C3)sc2n1` (single isomer, unassigned) [Example 14-17] reads 1 to 50 nM; that for `CN[C@H]1CCN(c2ccc3c(c2)CC[C@H](NC(=O)c2sc4nc(C)cnc4c2N)C3)C1` (single isomer, unassigned) [Example 11-25], 50 to 200 nM; that for `[2H]C1([2H])c2c(F)cc(N3CCNCC3)cc2OC[C@H]1NC(=O)c1sc2nc(C)ccc2c1N` (single isomer, unassigned) [Example 33-2], 200 to 2000 nM.
Turning to `Cc1ccc2c(N)c(C(=O)N[C@H]3COc4cc(N5C[C@H](N)[C@@](C)(CF)C5)ccc4C3)sc2n1` [Example 659, 3-amino-N-[(3R)-7-[(3S,4R)-4-amino-3-(fluoromethyl)-3-methylpyrrolidin-1-yl]-3,4-dihydro-2H-1-benzopyran-3-yl]-6-methylthieno[2,3-b]pyridine-2-carboxamide], the IC50 under setting [2] lay in the range of 1 to 50 nM.
On to `Cc1ccc2c(N)c(C(=O)N[C@H]3CCc4nc(N5C[C@@H](N)[C@]6(CCOC6)C5)ccc4C3)sc2n1` [Example 438, 3-amino-N-[(6S)-2-[(5S, 9S)-9-amino-2-oxa-7-azaspiro[4.4]nonan-7-yl]-5,6,7,8-tetrahydroquinolin-6-yl]-6-methylthieno[2,3-b]pyridine-2-carboxamide], for which the IC50 under setting [1] fell in the range of 50 to 200 nM.
As for `Cc1ccc2c(N)c(C(=O)N[C@H]3COc4cc(N5C[C@H](N)[C@](C)(CF)C5)ccc4C3)sc2n1` [Example 658, 3-amino-N-[(3R)-7-[(3R,4R)-4-amino-3-(fluoromethyl)-3-methylpyrrolidin-1-yl]-3,4-dihydro-2H-1-benzopyran-3-yl]-6-methylthieno[2,3-b]pyridine-2-carboxamide], the IC50 under setting [2] lay in the range of 1 to 50 nM.
Regarding `Cc1cnc2c(N)c(C(=O)N[C@@H]3CCc4cc(N5CCNCC5)cc(F)c4C3)sc2n1` (single isomer, unassigned) [Example 11-37], the IC50 under setting [1] is 200 to 2000 nM.
`Cc1ccc2c(N)c(C(=O)N[C@H]3CCc4cc(N5C[C@H](CF)[C@H](N)C5)ccc4C3)sc2n1` [Example 657, 3-amino-N-[(2S)-6-[(3S,4S)-3-amino-4-(fluoromethyl)pyrrolidin-1-yl]-1,2,3,4-tetrahydronaphthalen-2-yl]-6-methylthieno[2,3-b]pyridine-2-carboxamide]: under setting [2], the IC50 was in the range of 50 to 200 nM.
On to `Cc1ccc2c(N)c(C(=O)N[C@H]3CCc4c(F)c(N5CC6CCC(C5)N6)cc(F)c4C3)sc2n1` (single isomer, unassigned) [Example 22-5], for which, under setting [1], the IC50 was 1 to 50 nM.
Still for that read-out and setting: next, `Cc1cnc2c(N)c(C(=O)N[C@@H]3CCc4c(ccc(N5CCNCC5)c4F)C3)sc2n1` (single isomer, unassigned) [Example 21-9]: 50 to 200 nM; `COC[C@@]1(C)CN(c2ccc3c(n2)CC[C@H](NC(=O)c2sc4nc(C)ccc4c2N)C3)C[C@H]1N` [Example 343, 3-amino-N-[(6S)-2-[(3S,4S)-4-amino-3-(methoxymethyl)-3-methylpyrrolidin-1-yl]-5,6,7,8-tetrahydroquinolin-6-yl]-6-methylthieno[2,3-b]pyridine-2-carboxamide]: 50 to 200 nM.
In the case of `Cc1ccc2c(N)c(C(=O)N[C@@H]3CCc4cc(N5CCNCC5)ccc4C3)sc2n1` (single isomer, unassigned) [Example 11-22], under setting [1], the IC50 was in the range of 50 to 200 nM.
Take `[2H]C1([2H])c2c(F)cc(N3CCNCC3)cc2OC[C@@H]1NC(=O)c1sc2nc(C)ccc2c1N` (single isomer, unassigned) [Example 33-1]: the IC50 under setting [1] is 1 to 50 nM.
On the same count and under the same terms, next, `Cc1ccc2c(N)c(C(=O)N[C@H]3COc4cc(N5C[C@H](CF)[C@H](N)C5)ccc4C3)sc2n1` (single isomer, unassigned) [Example 424]: 1 to 50 nM.
`CN[C@@H]1CN(c2ccc3c(c2)OC[C@H](NC(=O)c2sc4nc(C)ccc4c2N)C3)C[C@H]1CF` [Example 663, 3-amino-N-[(3R)-7-[(3R,4S)-3-(fluoromethyl)-4-(methylamino)pyrrolidin-1-yl]-3,4-dihydro-2H-1-benzopyran-3-yl]-6-methylthieno[2,3-b]pyridine-2-carboxamide]: the IC50 under setting [2] was 1 to 50 nM.
